Assay results as given in US10968203B2, “Pyrimidinyl-pyridyloxy-naphthyl compounds and methods of treating IRE1-related diseases and disorders” (Genentech, Inc., priority 2017, dated 2021).
Where a name gives a salt, the structure may show the parent alone.

Test system: XBP1s-luc 293 LUC
Assay: cellular PD assay, XBP1s-LUC reporter (Example 903)
Type: cell-based
Settings: Table 2; read-out: XBP1s-luc 293 LUC (IC50)
Procedure, shortened: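 A luciferase fusion, in frame and expressed only when the XBP1 transcript is spliced, served as the readout of cellular IRE1α activity in an XBP1-Luc reporter line.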

SMILES	IC50 [nM]
Cc1ccc2c(NCC(O)C(C)C)cccc2c1Oc1ncccc1-c1ccnc(N[C@H]2CCCNC2)n1 (single isomer, unassigned) [Example 462, hydrochloride]	110
Cc1ccc2c(NS(=O)(=O)Cc3ccccc3F)c(F)ccc2c1Oc1ncccc1-c1ccnc(N[C@H]2CNC[C@H](F)C2)n1 (single isomer, unassigned) [Example 463, hydrochloride]	268
Cc1ccc2c(NS(=O)(=O)Cc3ccccc3F)c(F)ccc2c1Oc1ncccc1-c1ccnc(N[C@@H]2CNC[C@@H](F)C2)n1 (single isomer, unassigned) [Example 464, hydrochloride]	4
Cc1cc(CS(=O)(=O)Nc2c(F)ccc3c(Oc4ncccc4-c4ccnc(N[C@@H]5CNC[C@@H](F)C5)n4)c(C)ccc23)no1 (single isomer, unassigned) [Example 468, hydrochloride]	10
Cc1ccc2c(NC[C@H](O)C(F)(F)F)cccc2c1Oc1ncccc1-c1ccnc(N[C@@H]2CNC[C@@H](F)C2)n1 (single isomer, unassigned) [Example 469, hydrochloride]	5
Cc1ccc2c(NS(=O)(=O)C[C@@H]3CCC3(F)F)c(F)ccc2c1Oc1ncccc1-c1ccnc(N[C@H]2CCCNC2)n1 (single isomer, unassigned) [Example 470, hydrochloride]	24
Cc1ccc2c(NS(=O)(=O)C[C@H]3CCC3(F)F)c(F)ccc2c1Oc1ncccc1-c1ccnc(N[C@H]2CCCNC2)n1 (single isomer, unassigned) [Example 471, hydrochloride]	17
Cc1ccc2c(NS(=O)(=O)C[C@@H]3CC34CC4)c(F)ccc2c1Oc1ncccc1-c1ccnc(N[C@H]2CCCNC2)n1 (single isomer, unassigned) [Example 473, hydrochloride]	76
Cc1ccc2c(NS(=O)(=O)C[C@H]3CC34CC4)c(F)ccc2c1Oc1ncccc1-c1ccnc(N[C@H]2CCCNC2)n1 (single isomer, unassigned) [Example 474, hydrochloride]	52
Cc1ccc2c(NC[C@H](O)C(F)F)cccc2c1Oc1ncccc1-c1ccnc(N[C@H]2CCCNC2)n1 (single isomer, unassigned) [Example 475, hydrochloride]	19
Cc1ccc2c(NC[C@@H](O)C(F)F)cccc2c1Oc1ncccc1-c1ccnc(N[C@H]2CCCNC2)n1 (single isomer, unassigned) [Example 476, hydrochloride]	129
Cc1ccc2c(NS(=O)(=O)Cc3ccc(C#N)cc3)c(F)ccc2c1Oc1ncccc1-c1ccnc(N[C@@H]2CNC[C@@H](F)C2)n1 (single isomer, unassigned) [Example 484, hydrochloride]	5
Cc1ccc2c(NC[C@@H](O)C3CC3)cccc2c1Oc1ncccc1-c1ccnc(N[C@H]2CCCNC2)n1 (single isomer, unassigned) [Example 488, hydrochloride]	30
Cc1ccc2c(NC[C@H](O)C3CC3)cccc2c1Oc1ncccc1-c1ccnc(N[C@H]2CCCNC2)n1 (single isomer, unassigned) [Example 489, hydrochloride]	132
Cc1nc(CS(=O)(=O)Nc2c(F)ccc3c(Oc4ncccc4-c4ccnc(N[C@@H]5CNC[C@@H](F)C5)n4)c(C)ccc23)cs1 (single isomer, unassigned) [Example 490, hydrochloride]	4
Cc1nc(CS(=O)(=O)Nc2c(F)ccc3c(Oc4ncccc4-c4ccnc(N[C@H]5CNC[C@H](F)C5)n4)c(C)ccc23)cs1 (single isomer, unassigned) [Example 491, hydrochloride]	117
CO[C@@H](CNc1cccc2c(Oc3ncccc3-c3ccnc(N[C@@H]4CNC[C@@H](F)C4)n3)c(C)ccc12)C(F)(F)F (single isomer, unassigned) [Example 493, hydrochloride]	21
CCC(F)(F)CS(=O)(=O)Nc1c(F)ccc2c(Oc3ncccc3-c3ccnc(N[C@H]4CNC[C@H](F)C4)n3)c(C)ccc12 (single isomer, unassigned) [Example 495, hydrochloride]	469
